Source: patent publication US20260232709A1, “COMPOSITION COMPRISING MELOSIDE FOR ALLEVIATING HAIR LOSS AND IMPROVING HAIR GROWTH” (MORECHEM CO., LTD., priority 2024, published 2026)
Entries after “also recorded” stand apart in the source; their conditions may differ.

Tests used:
IL-6 (Interleukin 6) = assay: IL-6 expression in DHT-treated HDPC supernatant (ELISA); type: cell-based, human; settings: HDPC treated with 100 μg/mL DHT, 30 or 100 ppm, 1 day, FIG. 11
Description: Specifically, the following groups were prepared: (i) a negative control group, where neither Dihydrotestosterone (DHT) nor Meloside A and L were treated on human dermal papilla cells (HDPC); (ii) an untreated group, where 100 μg/mL DHT was treated on HDPC, but neither Meloside A nor L was treated; (iii) a positive control group, where HDPC were treated with 100 μM Minoxidil or 20 μM Dexamethasone (DEX); and (iv) a treated group, where HDPC were first treated with 100 μg/mL DHT to increase IL-6 expression, and then treated with Meloside A or L at concentrations of 30 or 100 ppm, respectively, for 1 day. After preparation, the cell supernatants from HDPC of (i) to (iv) were obtained, and the increase or decrease in the expression level of IL-6 (Interleukin 6) was confirmed using an Enzyme-Linked Immunosorbent Assay (ELISA). For the analysis of expression patterns for each sample, normalization was performed based on a standard sample of IL-6, and the results are shown in FIG. 11.

DKK1 = DKK1 expression in DHT-treated HDPC supernatant (ELISA); type: cell-based, human; settings: HDPC treated with DHT, 30 or 100 ppm, 1 day, FIG. 7
Description: HDPC were treated with DHT to increase DKK1 expression, and then treated with Meloside A or L at concentrations of 30 or 100 ppm, respectively, for 1 day to obtain the cell supernatant. For comparison, HDPC treated with Dihydrotestosterone (DHT) but without Meloside A and L were used as the untreated group, and HDPC treated with 100 μM Minoxidil were used as the positive control group.
The increase or decrease in DKK1 expression level in the obtained cell supernatant was confirmed through an Enzyme-Linked Immunosorbent Assay (ELISA) method, and the results are shown in FIG. 7.

androgen receptor = target: T1, androgen receptor (Homo sapiens, UniProt P10275); assay: Androgen receptor nuclear translocation in dermal papilla cells (EGFP-AR, fluorescence microscopy); type: cell-based; settings: DHT co-treated with 100 ppm, 24 hours, FIGS. 5 and 6
T1 construct: host or cells: dermal papilla cells
T1 sequence (P10275 1-920): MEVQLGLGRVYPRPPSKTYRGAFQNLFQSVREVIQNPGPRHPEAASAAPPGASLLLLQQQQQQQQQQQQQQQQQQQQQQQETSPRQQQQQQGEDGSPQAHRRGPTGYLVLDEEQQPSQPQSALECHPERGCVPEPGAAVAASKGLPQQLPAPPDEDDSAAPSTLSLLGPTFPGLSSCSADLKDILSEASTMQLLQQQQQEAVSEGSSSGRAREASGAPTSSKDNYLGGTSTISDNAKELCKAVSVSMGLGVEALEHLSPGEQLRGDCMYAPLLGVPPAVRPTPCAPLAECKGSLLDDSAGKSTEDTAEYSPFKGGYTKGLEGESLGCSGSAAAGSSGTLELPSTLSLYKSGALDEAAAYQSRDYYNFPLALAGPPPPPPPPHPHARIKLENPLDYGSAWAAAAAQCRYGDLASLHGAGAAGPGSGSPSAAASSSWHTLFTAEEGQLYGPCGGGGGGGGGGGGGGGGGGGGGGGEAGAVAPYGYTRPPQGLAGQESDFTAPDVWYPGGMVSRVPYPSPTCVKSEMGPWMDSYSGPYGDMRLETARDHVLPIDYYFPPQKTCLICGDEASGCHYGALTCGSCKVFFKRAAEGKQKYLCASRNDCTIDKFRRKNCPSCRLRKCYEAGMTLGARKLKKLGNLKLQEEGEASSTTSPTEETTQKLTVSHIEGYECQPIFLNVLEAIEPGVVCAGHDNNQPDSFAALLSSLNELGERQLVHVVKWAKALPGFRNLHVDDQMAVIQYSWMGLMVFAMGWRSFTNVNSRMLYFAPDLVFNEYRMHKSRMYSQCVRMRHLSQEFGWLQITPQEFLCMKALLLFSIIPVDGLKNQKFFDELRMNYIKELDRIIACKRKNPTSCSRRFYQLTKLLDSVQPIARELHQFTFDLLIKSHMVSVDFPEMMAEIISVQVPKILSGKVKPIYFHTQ
Description: To confirm the involvement of androgen receptors in hair loss-related gene transcription, recombinant plasmid EGFP-AR (Addgene) was used, and the extent of androgen receptor nuclear translocation in dermal papilla cells was measured using a cellular injection method.
For the untreated group, only DHT was treated, and for the negative control group, neither DHT nor the sample was treated. In the experimental group, DHT and Meloside A or L at 100 ppm were co-treated, and after 24 hours, measurements were taken using a fluorescence microscope at Ex 485 nm and Em 535 nm. The results observed with the fluorescence microscope are shown in FIG. 5, and the number of cells with translocated androgen receptors in the treated groups, based on the untreated group, is shown in FIG. 6.

Androgen Receptor (AR) = assay: Androgen receptor expression in DHT-treated HDPC (Western blot); type: cell-based, human; settings: HDPC pre-treated with 1 μM DHT, 30 or 100 ppm, 1 day, FIGS. 3 and 4
Description: Human hair dermal papilla cells (HDPC), used in the test examples described below, were cultured in Dulbecco's Modified Eagle Medium (DMEM, WELGENE) supplemented with 10% Fetal Bovine Serum (FBS, WELGENE) and 1% antibiotics (Penicillin-Streptomycin, WELGENE) as the culture medium, in an incubator at 37° C., 5% CO2, and humid conditions.
Specifically, the following groups were prepared: (i) a negative control group, where neither Dihydrotestosterone (DHT) nor Meloside A and L were treated on human dermal papilla cells (HDPC); (ii) an untreated group, where 1 μM DHT was treated on HDPC, but neither Meloside A nor L was treated; (iii) a positive control group, where 1 μM DHT was treated on HDPC, followed by treatment with 100 μM Minoxidil instead of Meloside A and L; and (iv) a treated group, where HDPC were first treated with 1 μM DHT to activate androgen receptors, and then treated with Meloside A or L at concentrations of 30 or 100 ppm, respectively, for 1 day. After preparation, the HDPC from (i) to (iv) were lysed, and the increase or decrease in the expression level of Androgen Receptor (AR) was confirmed using the Western blot technique. Here, for the analysis of relative expression patterns for each sample, the expression level was normalized based on the expression level of Actin. […]

Compound | IL-6 expression level (IL-6 (Interleukin 6)) | DKK1 expression level (DKK1) | DHT-induced translocation of androgen receptors (number of cells with translocated AR) (androgen receptor) | androgen receptor (AR) expression level, normalized to Actin (Androgen Receptor (AR))
O=c1cc(-c2ccc(O)cc2)oc2cc(O)c([C@@H]3O[C@H](CO)[C@@H](O)[C@H](O)[C@H]3O[C@@H]3O[C@H](CO)[C@@H](O)[C@H](O)[C@H]3O)c(O)c12 [Meloside A, isovitexin 2″-O-glucoside] | decrease in IL-6 expression | concentration-dependent decrease in DKK1 expression | inhibited; also recorded: superior to that of Meloside L treatment | concentration-dependent; also recorded: superior effect in decreasing the expression level of androgen receptor (AR) compared to Meloside L
O=c1cc(-c2ccc(O)c(O)c2)oc2cc(O)c([C@@H]3O[C@H](CO)[C@@H](O)[C@H](O)[C@H]3O[C@@H]3O[C@H](CO)[C@@H](O)[C@H](O)[C@H]3O)c(O)c12 [Meloside L, isoorientin 2″-O-glucoside] | no IL-6 expression reduction effect was observed | no effect was observed | inhibited | concentration-dependent
